# Experimental data as given in PMC12040169 (PLOS Biology, 2025).
# Assay: in vitro
# Settings: human, hela cells, % viability
row,SMILES,"viability at 28.5 h, 10 µM"
1,COc1cc([N+](=O)[O-])ccc1NC(=O)NCc1ccc(C(=O)O)cc1 [CBK267092],87.1%
2,COc1ccc(C(=O)/C=C/c2cccs2)c(OC(=O)c2ccc([N+](=O)[O-])cc2)c1 [CBK264926],118%
3,NC(=O)C1CN(C(=O)CN2CCCc3ccccc32)c2ccccc2O1 (stereo not drawn) [CBK295163],93.4%
4,C=CCOc1c(Br)cc(CNc2ccc(C(=O)O)cc2)cc1OC [CBK267202],111%
5,O=S1(=O)CC(OS(=O)(=O)c2ccc(Cl)cc2)C(OS(=O)(=O)c2ccc(Cl)cc2)C1 (stereo not drawn) [CBK262049],104%
6,O=C(C1COc2ccccc2O1)N(Cc1cccnc1)c1nc2c(F)cccc2s1 (stereo not drawn) [CBK294421],91%
7,COc1cc(NC(=O)N2CCNC(=O)C2)cc(OC)c1OC [CBK155875],104%
8,Sc1nnc(COc2ccccc2)n1/N=C/c1cccnc1 [CBK265308],103%
9,O=C1NC2CS(=O)(=O)CC2N1Cc1ccccc1 (stereo not drawn) [CBK009306],85.7%
10,O=C(Nc1cc(Oc2cccnc2)cc([N+](=O)[O-])c1)c1cc2nc(-c3ccco3)cc(C(F)(F)F)n2n1 [CBK262534],110%
11,Cc1ccc(Nc2nc(Cn3nc(C(=O)O)c4ccccc4c3=O)cs2)cc1 [CBK296989],86.7%
12,CCCCCc1nnc(Nc2nc(C)cc(C)n2)[nH]1 [CBK288155],95.4%
13,COC(=O)CCC(=O)Nc1ccc(S(N)(=O)=O)cc1 [CBK261351],88.1%
14,O=C(O)CC1Sc2ccccc2NC1=O (stereo not drawn) [CBK261308],101%
15,COc1ccccc1NC(=O)NC(=O)C1CCN(CCc2cccs2)CC1 [CBK034912],87.5%
16,N#Cc1ccccc1N1C(=O)c2cccc([N+](=O)[O-])c2C1=O [CBK115322],94.1%
17,CC(C)c1ccc(S(=O)(=O)NCCC(C)(C)C)cc1 [CBK043640],95.4%
18,Cc1cccnc1C(NC(=O)C1CCN(CCOc2ccccc2)CC1)c1ccc(F)cc1 (stereo not drawn) [CBK147892],91.8%
19,CCCC(=O)NC[C@H]1CC[C@H](c2ccnc3cc(C)nn32)CC1 [CBK283474],102%
20,O=C(NCc1ccccn1)Nc1ccc2c(c1)OCO2 [CBK267014],97.1%
21,CN(C)C(=O)CO[C@@H]1CO[C@H]2[C@@H]1OC[C@@H]2Nc1nccc(-c2cccc(F)c2)n1 [CBK289533],87.9%

row,SMILES,"viability at 28.5 h, 10 µM"
1,O=S(=O)(c1ccccc1)C1CC1 [CBK023184],89%
2,NNC(=O)CCc1nc2ccc(O)cc2[nH]1 [CBK263633],93%
3,Cc1ccc2cc(C3CC(c4ccccc4)=NN3C(=O)CCC(=O)O)c(=O)[nH]c2c1 (stereo not drawn) [CBK296127],109%
4,c1ccc(CCN2CCC(Oc3cncc(OCC4COc5ccccc5O4)n3)C2)cc1 (stereo not drawn) [CBK084382],93%
5,CNCC(=O)N(CCc1cc(C(F)(F)F)cc(C(F)(F)F)c1)c1ccc2c(c1)OCO2 [CBK001038T],120%
6,O=C(C1CCCC1)N1CCCC1c1nc2ccccc2[nH]1 (stereo not drawn) [CBK282378],88.5%
7,O=C(c1ccccc1)N1CCN(c2ccc(-n3cccn3)nn2)CC1 [CBK287662],92.2%
8,COc1cc(Cl)cc(C2NC(=S)NC(c3ccccc3)=C2C(=O)c2ccccc2)c1OCC(=O)O (stereo not drawn) [CBK266332],106%
9,O=C(O)CCC(=O)NNC(=O)c1cccc(O)c1 [CBK262116],97.8%
10,O=c1[nH]c2ncc(-c3ccco3)nc2n1Cc1ccccn1 [CBK064349],101%
11,CCn1c(C)nnc1SCC(=O)Nc1cc(C(F)(F)F)ccc1Cl [CBK304382],91.7%
12,CN(Cc1ccccc1)c1nccnc1-c1ccc(CO)cc1 [CBK038067],101%
13,CC(C)(C)CC(=O)N[C@H]1C[C@H]2C(=O)Nc3ccccc3C(=O)N2C1 [CBK289352],96.2%
14,CC(C)(C#N)C(C)(C)c1nnn[nH]1 [CBK067072],85.1%
15,COc1cc(/C=C2\C=C(c3ccc(-c4ccccc4)cc3)OC2=O)ccc1O [CBK265594],88.5%
16,Cc1cc(C)n2nc(CC(=O)N3CCCC3c3ccccn3)nc2n1 (stereo not drawn) [CBK304408],90.8%
17,Sc1nnnn1-c1ccccc1 [CBK022881G],99.9%
18,CC(C)(C)c1ccccc1NC(=O)N(CCCN)Cc1cc(F)cc(F)c1 [CBK034697C],82.7%
19,CC(=O)Nc1ccc(S(=O)(=O)/N=C(/Nc2nc(C)cc(C)n2)Nc2ccccc2C)cc1 [CBK264101],95.9%
20,O=C(O)c1ccc(NS(=O)(=O)c2cc(F)c(Br)cc2F)cc1 [CBK034045],101%
21,O=C(O)CCN1CCN(S(=O)(=O)c2cccc([N+](=O)[O-])c2)CC1 [CBK268819],89.7%

row,SMILES,"viability at 28.5 h, 10 µM"
1,CCc1ccc(N(CC(=O)NCc2ccccn2)S(C)(=O)=O)cc1 [CBK265322],98.8%
2,Cc1cc2c(cc3c(=O)n(CC(=O)N4CCCCC4)nc(C)n32)o1 [CBK283630],83.4%
3,CC(C)C1C2CCCCC2=NN1C(=O)/C=C/C(=O)O (stereo not drawn) [CBK286862],93.1%
4,CCn1c(C2CCN(C(=O)c3cc(C(F)(F)F)n[nH]3)CC2)nn(C)c1=O [CBK307184],88.9%
5,Cc1ccc(S(=O)(=O)N/N=C/C=C/c2ccc(N(C)C)cc2)cc1 [CBK265078],99.7%
6,Fc1ccc(Oc2nccnc2N2CCN(CCOc3cccnc3)CC2)cc1 [CBK083037T],98.7%
7,COCCCn1c(=O)[nH]c2ncc(-c3ccc(O)cc3)nc21 [CBK064425],93.6%
8,Nc1nnc(SCC(=O)N2CCN(C(c3ccccc3)c3ccccc3)CC2)s1 [CBK266320],99.2%
9,Cc1ccccc1NC(=O)Cc1nc(CN2CCC3(CCOC3)C2)cs1 (stereo not drawn) [CBK304164],95.5%
10,CC(C)C(=O)N1CCC(OCc2ccc(-c3ccc(C(=O)N(C)C)cc3)cc2S(C)(=O)=O)CC1 [CBK155921],102%
11,CCn1cc(CN2CCCN(C(=O)c3cn4ccccc4n3)CC2)cn1 [CBK304784],98.3%
12,COCOc1ccc(-c2ncc(OC)nc2NC(=O)c2cc(C)oc2C)cc1 [CBK145249],97.6%
13,O=C(Nc1cccc(O)c1)c1ccc(Br)c(S(=O)(=O)N2CCCCC2)c1 [CBK261736],91.9%
14,CC(=O)N1CCc2c(sc3nc(N)c(C(=O)NCCc4ccc(F)cc4)c(C(F)(F)F)c23)C1 [CBK269176],94.4%
15,CN1CCC(N(C)C/C(Cl)=C/c2ccccc2)CC1 [CBK261903],92.1%
16,COc1ccc(Cl)cc1N1CCN(CC2CCCCC2)CC1 [CBK138336],77.8%
17,Nc1cc(=O)[nH]c(SCC(=O)N2CCCc3ccccc32)n1 [CBK304576],94.1%
18,O=C(CNC(=O)c1ccccc1Cl)Nc1ccc(Br)cc1C(=O)c1ccccc1 [CBK087691],101%
19,CSc1nc2ccc(S(=O)(=O)NCCOc3ccc(Cl)cc3)cc2s1 [CBK268219],81.9%
20,O=C(Cc1ccc(Cl)c(Cl)c1)N1CCC2(CCN(C(=O)c3cc(F)c(F)cc3F)C2)C1 (stereo not drawn) [CBK131386],95.9%

# Same assay, conditions: human, hela cells, % viability, bulk resorufin, single well
row,SMILES,"viability at 28.5 h, 10 µM"
1,COc1cc(/C=C2\C(=O)NC(=O)N(c3ccc([N+](=O)[O-])cc3)C2=O)ccc1OCC(=O)O [CBK265418],100%
